{
  "source": "ChEMBL document CHEMBL1159192",
  "about": "“PD 165929 the first high affinity non-peptide neuromedin-B (NMB) receptor selective antagonist” (Bioorg Med Chem Lett, 1996)",
  "key": {"[1]": {"target": "Gastrin-releasing peptide receptor (Homo sapiens, UniProt P30550)", "sequence (P30550 whole entry)": "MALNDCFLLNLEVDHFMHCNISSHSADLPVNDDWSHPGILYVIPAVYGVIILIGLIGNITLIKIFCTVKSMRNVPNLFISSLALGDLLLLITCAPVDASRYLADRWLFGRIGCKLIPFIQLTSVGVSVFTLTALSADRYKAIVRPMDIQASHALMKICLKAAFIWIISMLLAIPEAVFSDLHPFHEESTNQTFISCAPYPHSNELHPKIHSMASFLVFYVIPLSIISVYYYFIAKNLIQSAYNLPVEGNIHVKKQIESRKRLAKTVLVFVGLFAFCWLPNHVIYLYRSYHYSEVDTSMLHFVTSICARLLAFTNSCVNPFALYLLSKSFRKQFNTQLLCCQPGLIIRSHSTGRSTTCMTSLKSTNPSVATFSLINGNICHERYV", "assay": "Binding affinity against [125 I][4Tyr]-bombesin labeled cloned human GRP(gastrin releasing peptide) receptors stably expressed in CHO cells", "format": "cell-based"}, "Neuromedin-B receptor [2]": {"target": "T1, Neuromedin-B receptor (Homo sapiens, UniProt P28336)", "assay": "Binding affinity against [125 I][4Tyr]-bombesin labeled cloned human NMB receptor stably expressed in CHO cells", "format": "cell-based"}, "Neuromedin-B receptor [3]": {"target": "T2, Neuromedin-B receptor (Rattus norvegicus, UniProt P24053)", "T2 sequence (P24053 whole entry)": "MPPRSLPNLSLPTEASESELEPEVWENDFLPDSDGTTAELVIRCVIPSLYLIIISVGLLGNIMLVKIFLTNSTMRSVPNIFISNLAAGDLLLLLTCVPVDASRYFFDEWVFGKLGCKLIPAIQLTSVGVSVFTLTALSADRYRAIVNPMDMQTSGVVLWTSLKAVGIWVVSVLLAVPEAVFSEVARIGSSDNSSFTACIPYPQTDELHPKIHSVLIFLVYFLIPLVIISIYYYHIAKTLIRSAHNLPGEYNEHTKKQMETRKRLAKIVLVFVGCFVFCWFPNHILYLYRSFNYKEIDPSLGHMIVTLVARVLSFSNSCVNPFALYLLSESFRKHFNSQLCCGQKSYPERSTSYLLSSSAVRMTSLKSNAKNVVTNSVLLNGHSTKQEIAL", "assay": "Binding affinity against NMB receptor in rat olfactory bulb was determined using [125I]-[Tyr4] bombesin."}, "Neuromedin-B receptor [4]": {"target": "T1, Neuromedin-B receptor", "assay": "Binding affinity against human NMB receptor was determined"}, "Neuromedin-B receptor [5]": {"target": "T1, Neuromedin-B receptor", "assay": "Inhibition of the NMB induced acidification response at human NMB receptor expressed in CHO cell", "format": "functional, cell-based"}, "Neuromedin-B receptor [6]": {"target": "T1, Neuromedin-B receptor", "assay": "Inhibition of the NMB evoked increases in chloride currents in xenopus oocytes expressing human NMB receptor", "format": "functional, cell-based", "conditions": "Oocyte"}},
  "data": [
    {"compound": "CC(C)c1cccc(C(C)C)c1NC(=O)N[C@@](C)(Cc1c[nH]c2ccccc12)C(=O)NC1CCCCC1c1ccccc1", "note": "(stereo partly drawn)", "values": [
      {"measurement": "Ki", "setting": "[1]", "result": "> 10000", "unit": "nM"},
      {"measurement": "Ki", "setting": "Neuromedin-B receptor [2]", "result": 76, "unit": "nM"}
    ]},
    {"compound": "CC(C)c1cccc(C(C)C)c1NC(=O)NC(C)(Cc1c[nH]c2ccccc12)C(=O)NC1COC(C)(C)OC1", "note": "(stereo not drawn)", "values": [
      {"measurement": "Ki", "setting": "[1]", "result": "> 10000", "unit": "nM"},
      {"measurement": "Ki", "setting": "Neuromedin-B receptor [2]", "result": 630, "unit": "nM"}
    ]},
    {"compound": "CC(C)c1cccc(C(C)C)c1NC(=O)NC(Cc1c[nH]c2ccccc12)C(=O)NC(C)C1CCCCC1", "note": "(stereo not drawn)", "values": [
      {"measurement": "Ki", "setting": "[1]", "result": "> 10000", "unit": "nM"},
      {"measurement": "Ki", "setting": "Neuromedin-B receptor [2]", "result": 440, "unit": "nM"}
    ]},
    {"compound": "CC(C)c1cccc(C(C)C)c1NC(=O)NC(C)(Cc1c[nH]c2ccccc12)C(=O)N[C@H]1COC(C)(C)OC1c1ccccc1", "note": "(stereo partly drawn)", "values": [
      {"measurement": "Ki", "setting": "[1]", "result": "> 10000", "unit": "nM"},
      {"measurement": "Ki", "setting": "Neuromedin-B receptor [2]", "result": 95, "unit": "nM"}
    ]},
    {"compound": "CNC(=O)C(C)(Cc1c[nH]c2ccccc12)NC(=O)Nc1c(C(C)C)cccc1C(C)C", "note": "(stereo not drawn)", "values": [
      {"measurement": "Ki", "setting": "[1]", "result": "> 10000", "unit": "nM"},
      {"measurement": "Ki", "setting": "Neuromedin-B receptor [2]", "result": 3700, "unit": "nM"}
    ]},
    {"compound": "CC(C)c1cccc(C(C)C)c1NC(=O)NC(C)(Cc1c[nH]c2ccccc12)C(=O)NCCc1ccccc1", "note": "(stereo not drawn)", "values": [
      {"measurement": "Ki", "setting": "[1]", "result": "> 10000", "unit": "nM"},
      {"measurement": "Ki", "setting": "Neuromedin-B receptor [2]", "result": 450, "unit": "nM"}
    ]},
    {"compound": "CC(C)c1cccc(C(C)C)c1NC(=O)NC(Cc1c[nH]c2ccccc12)C(=O)NCC1CCCCC1", "note": "(stereo not drawn)", "values": [
      {"measurement": "Ki", "setting": "[1]", "result": "> 10000", "unit": "nM"},
      {"measurement": "Ki", "setting": "Neuromedin-B receptor [2]", "result": 120, "unit": "nM"}
    ]},
    {"compound": "CC(C)c1cccc(C(C)C)c1NC(=O)NC(Cc1c[nH]c2ccccc12)C(=O)N(C)CC1CCCCC1", "note": "(stereo not drawn)", "values": [
      {"measurement": "Ki", "setting": "[1]", "result": "> 10000", "unit": "nM"}
    ]},
    {"compound": "CC(C)c1cccc(C(C)C)c1NC(=O)N[C@@](C)(Cc1c[nH]c2ccccc12)C(=O)NCC1(c2ccccn2)CCCCC1", "values": [
      {"measurement": "Ki", "setting": "[1]", "result": "> 10000", "unit": "nM"},
      {"measurement": "IC50", "setting": "Neuromedin-B receptor [3]", "result": 150, "unit": "nM"},
      {"measurement": "Ki", "setting": "Neuromedin-B receptor [4]", "result": 6.3, "unit": "nM"},
      {"measurement": "Kb", "setting": "Neuromedin-B receptor [5]", "result": 7.6, "unit": "nM"},
      {"measurement": "Kb", "setting": "Neuromedin-B receptor [6]", "result": 7.5, "unit": "nM"},
      {"measurement": "Ki", "setting": "Neuromedin-B receptor [2]", "result": 6.3, "unit": "nM"}
    ]},
    {"compound": "CC(C)c1cccc(C(C)C)c1N(C)C(=O)NC(Cc1c[nH]c2ccccc12)C(=O)NCC1CCCCC1", "note": "(stereo not drawn)", "values": [
      {"measurement": "Ki", "setting": "[1]", "result": "> 10000", "unit": "nM"},
      {"measurement": "Ki", "setting": "Neuromedin-B receptor [2]", "result": 260, "unit": "nM"}
    ]},
    {"compound": "CC(C)c1cccc(C(C)C)c1NC(=O)NC(C)(Cc1c[nH]c2ccccc12)C(=O)NC1CCCCC1", "note": "(stereo not drawn)", "values": [
      {"measurement": "Ki", "setting": "[1]", "result": "> 10000", "unit": "nM"},
      {"measurement": "Ki", "setting": "Neuromedin-B receptor [2]", "result": 310, "unit": "nM"}
    ]},
    {"compound": "CC(C)c1cccc(C(C)C)c1NC(=O)NC(C)(Cc1c[nH]c2ccccc12)C(=O)N[C@@H]1COC(C)(C)OC1c1ccccc1", "note": "(stereo partly drawn)", "values": [
      {"measurement": "Ki", "setting": "[1]", "result": "> 10000", "unit": "nM"},
      {"measurement": "Ki", "setting": "Neuromedin-B receptor [2]", "result": 420, "unit": "nM"}
    ]},
    {"compound": "CC(C)c1cccc(C(C)C)c1NC(=O)NC(C)(Cc1c[nH]c2ccccc12)C(=O)NCC1CCCCC1", "note": "(stereo not drawn)", "values": [
      {"measurement": "Ki", "setting": "[1]", "result": "> 10000", "unit": "nM"},
      {"measurement": "Ki", "setting": "Neuromedin-B receptor [2]", "result": 125, "unit": "nM"}
    ]},
    {"compound": "CC(C)c1cccc(C(C)C)c1NC(=O)NC(C)(Cc1c[nH]c2ccccc12)C(=O)NCC1(c2ccccc2)CCCCC1", "note": "(stereo not drawn)", "values": [
      {"measurement": "Ki", "setting": "[1]", "result": "> 10000", "unit": "nM"},
      {"measurement": "Ki", "setting": "Neuromedin-B receptor [2]", "result": 7.8, "unit": "nM"}
    ]},
    {"compound": "CC(C)c1cccc(C(C)C)c1NC(=O)NC(C)(Cc1c[nH]c2ccccc12)C(=O)NC1CCc2ccccc2C1", "note": "(stereo not drawn)", "values": [
      {"measurement": "Ki", "setting": "[1]", "result": "> 10000", "unit": "nM"},
      {"measurement": "Ki", "setting": "Neuromedin-B receptor [2]", "result": 310, "unit": "nM"}
    ]},
    {"compound": "CC(C)c1cccc(C(C)C)c1NC(=O)N[C@](C)(Cc1c[nH]c2ccccc12)C(=O)NC1CCCc2ccccc21", "note": "(stereo partly drawn)", "values": [
      {"measurement": "Ki", "setting": "[1]", "result": "> 10000", "unit": "nM"},
      {"measurement": "Ki", "setting": "Neuromedin-B receptor [2]", "result": 14, "unit": "nM"}
    ]},
    {"compound": "CC(C)c1cccc(C(C)C)c1NC(=O)NC(C)(Cc1c[nH]c2ccccc12)C(=O)NC1CCCc2ccccc21", "note": "(stereo not drawn)", "values": [
      {"measurement": "Ki", "setting": "[1]", "result": "> 10000", "unit": "nM"},
      {"measurement": "Ki", "setting": "Neuromedin-B receptor [2]", "result": 72, "unit": "nM"}
    ]},
    {"compound": "CC(C)c1cccc(C(C)C)c1NC(=O)N(C)C(Cc1c[nH]c2ccccc12)C(=O)NCC1CCCCC1", "note": "(stereo not drawn)", "values": [
      {"measurement": "Ki", "setting": "[1]", "result": 1500, "unit": "nM"}
    ]}
  ]
}
